Measurements as given in US10947574B2, “Method for producing fermented carotenoid using carotenoid-producing bacteria obtained by using cobalt-containing culturing medium” (ENEOS CORPORATION, priority 2015, dated 2021).

Tests used:
[1] = system: Paracoccus carotinifaciens strain E-396 (FERM BP-4283); test: Example 4: medium lots A-E with cobalt chloride, growth (OD610) and carotenoid levels (HPLC); format: cell-based; conditions: for Astaxanthin / OD610 / Total carotenoid: cobalt chloride added 0.1 mg/L (0.42 μmol/L)
Description: (§1) In the following examples, carotenoids were quantified by high performance liquid chromatography (HPLC) as follows.
(§2) Two columns of Inertsil SIL-100A, 5 μm (ϕ4.6 mm×250 mm) (GL Sciences Inc., Japan) were connected together for use as a column. For elution, a mixed solution of n-hexane, tetrahydrofuran and methanol (40:20:1) serving as a mobile phase was passed through the column at a flow rate of 1.0 mL per minute at a constant temperature around room temperature. For measurement, samples were each dissolved in tetrahydrofuran and diluted 100-fold with the mobile phase, and 20 μL aliquots of the resulting dilutions were injected into the column. The column eluates were detected at a wavelength of 470 nm. As a standard for quantification, astaxanthin (SIGMA, Cat. No. A9335) was used. The astaxanthin concentration of the standard solution was determined using the following equation after measuring the absorbance (A) of the standard solution at 477 nm and the area percentage % (B) of the astaxanthin peak in HPLC analysis under the above conditions.
Subsequently, medium ingredients from different manufacturers and lots were combined to prepare 5 types of media, i.e., A, B, C, D and E indicated in Table 7, each having the following composition (glucose 30 g/L, filtered corn steep liquor 30 g/L, ammonium sulfate 1.5 g/L, potassium dihydrogen phosphate 1.5 g/L, disodium hydrogen phosphate dodecahydrate 3.8 g/L, calcium chloride dihydrate 5.0 g/L, magnesium sulfate heptahydrate 0.7 g/L, iron sulfate heptahydrate 1.0 g/L, silicon-based defoaming agent 0.2 g/L). These media were each dispensed in 7.2 ml volumes into cotton-plugged test tubes having an inner diameter of 18 mm to prepare 2 test tubes for each test tube medium for production, i.e., 10 test tubes in total.
The resulting culture solution was then inoculated in 0.05 ml volumes into the 5 types of test tube media for production having different cobalt concentrations (10 test tubes in total), and cultured under shaking at 28° C. for 4 days at 300 spm.
After being cultured for 4 days, the culture solutions were each measured for microbial cell growth by OD610 and measure for carotenoid levels by HPLC.

[2] = system: Paracoccus carotinifaciens mutant strain CF-358; test: Example 5: 5 L fermenter culture with cobalt chloride, growth (OD610) and carotenoid levels (HPLC); format: cell-based
Description: as §1
as §2, with “conditions. […]” for “conditions.”
The ingredients used to prepare the seed flask medium were obtained from lots where microbial cells had been confirmed to grow well.
The resulting culture solution was then inoculated in 80 ml volumes into the individual fermenters, followed by aeration spinner culture at 28° C. under a gauge pressure of 0.01 MPa at an aeration volume of 1.5 vvm for 5 days. To maintain a pH of 7.2 during culture, 15% aqueous ammonia was automatically supplied. The number of spinner rotations was automatically varied such that the dissolved oxygen concentration in each culture solution was maintained at 2 to 4 ppm. An alcohol-based defoaming agent was automatically added to avoid bubbling.
At the completion of culture, the culture solutions were each measured for microbial cell growth by OD610 and measured for carotenoid levels by HPLC (Table 10).

[3] = medium lot A, total cobalt 0.42 μmol/L
[4] = medium lot B, total cobalt 0.62 μmol/L
[5] = medium lot C, total cobalt 0.46 μmol/L
[6] = medium lot D, total cobalt 0.43 μmol/L
[7] = medium lot E, total cobalt 0.49 μmol/L
[8] = final concentration of 0.1 mg/L, regardless of manufacturer and lot of medium ingredient
[9] = cobalt added 0.042 μmol/L, total 0.045 μmol/L
[10] = cobalt added 0.42 μmol/L, total 0.42 μmol/L
[11] = cobalt added 4.2 μmol/L, total 4.2 μmol/L
[12] = cobalt added 21 μmol/L, total 21 μmol/L

Question: With `O.O.O.O.O.O.[Cl-].[Cl-].[Co+2]` [Cobalt chloride hexahydrate] as the compound, how does the Astaxanthin ([1]; Average of medium lots A-E) read?
Answer: The Astaxanthin was 28 mg/L.

Question: And the OD610 ([1]; Average of medium lots A-E)?
Answer: The OD610 was 37.

Question: And the Total carotenoid ([1]; Average of medium lots A-E)?
Answer: Its Total carotenoid is 41 mg/L.

Question: What about the Astaxanthin [1, 3] of the same compound?
Answer: Its Astaxanthin is 29 mg/L.

Question: What about the OD610 [1, 3] of the same compound?
Answer: Its OD610 is 37.

Question: What about the Total carotenoid [1, 3] of the same compound?
Answer: The Total carotenoid was 41 mg/L.

Question: And the Astaxanthin [1, 4]?
Answer: The Astaxanthin was 26 mg/L.

Question: What about the OD610 [1, 4] of the same compound?
Answer: The OD610 was 39.

Question: And the Total carotenoid [1, 4]?
Answer: Its Total carotenoid is 40 mg/L.

Question: And the Astaxanthin [1, 5]?
Answer: Its Astaxanthin is 29 mg/L.

Question: What about the OD610 [1, 5] of the same compound?
Answer: Its OD610 is 38.

Question: And the Total carotenoid [1, 5]?
Answer: Its Total carotenoid is 44 mg/L.

Question: And the Astaxanthin [1, 6]?
Answer: Its Astaxanthin is 27 mg/L.

Question: And the OD610 [1, 6]?
Answer: Its OD610 is 36.

Question: What about the Total carotenoid [1, 6] of the same compound?
Answer: Its Total carotenoid is 41 mg/L.

Question: What about the Astaxanthin [1, 7] of the same compound?
Answer: Its Astaxanthin is 28 mg/L.

Question: And the OD610 [1, 7]?
Answer: Its OD610 is 37.

Question: And the Total carotenoid [1, 7]?
Answer: Its Total carotenoid is 40 mg/L.

Question: What about the “bacterial growth, in words” value [1, 8] of the same compound?
Answer: Its value is “high”.

Question: What about the “carotenoid productivity, in words” value [1, 8] of the same compound?
Answer: The value was “high”.

Question: And the “Carotenoid: 3-Hydroxyechinenone” value [2, 9]?
Answer: Its value is 12 mg/L.

Question: And the “Carotenoid: Adonirubin” value [2, 9]?
Answer: Its value is 273 mg/L.

Question: What about the “Carotenoid: Adonixanthin” value [2, 9] of the same compound?
Answer: Its value is 45 mg/L.

Question: What about the “Carotenoid: Astaxanthin” value [2, 9] of the same compound?
Answer: The value was 775 mg/L.

Question: What about the “Carotenoid: Asteroidenone” value [2, 9] of the same compound?
Answer: Its value is 11 mg/L.

Question: What about the “Carotenoid: Canthaxanthin” value [2, 9] of the same compound?
Answer: Its value is 90 mg/L.

Question: What about the “Carotenoid: Echinenone” value [2, 9] of the same compound?
Answer: Its value is 37 mg/L.

Question: And the “Carotenoid: β-Carotene” value [2, 9]?
Answer: Its value is 58 mg/L.

Question: What about the OD610 [2, 9] of the same compound?
Answer: Its OD610 is 194.

Question: And the Total carotenoid [2, 9]?
Answer: Its Total carotenoid is 1302 mg/L.

Question: What about the “Total carotenoid/dry microbial cells” value [2, 9] of the same compound?
Answer: Its value is 41.9 mg/g.

Question: And the “Carotenoid: 3-Hydroxyechinenone” value [2, 10]?
Answer: The value was 12 mg/L.

Question: What about the “Carotenoid: Adonirubin” value [2, 10] of the same compound?
Answer: The value was 216 mg/L.

Question: What about the “Carotenoid: Adonixanthin” value [2, 10] of the same compound?
Answer: Its value is 73 mg/L.

Question: And the “Carotenoid: Astaxanthin” value [2, 10]?
Answer: The value was 815 mg/L.

Question: And the “Carotenoid: Asteroidenone” value [2, 10]?
Answer: The value was 15 mg/L.

Question: What about the “Carotenoid: Canthaxanthin” value [2, 10] of the same compound?
Answer: Its value is 74 mg/L.

Question: And the “Carotenoid: Echinenone” value [2, 10]?
Answer: The value was 37 mg/L.

Question: What about the “Carotenoid: β-Carotene” value [2, 10] of the same compound?
Answer: Its value is 60 mg/L.

Question: What about the OD610 [2, 10] of the same compound?
Answer: The OD610 was 208.

Question: And the Total carotenoid [2, 10]?
Answer: Its Total carotenoid is 1303 mg/L.

Question: And the “Total carotenoid/dry microbial cells” value [2, 10]?
Answer: The value was 39.1 mg/g.

Question: And the “Carotenoid: 3-Hydroxyechinenone” value [2, 11]?
Answer: Its value is 5 mg/L.

Question: And the “Carotenoid: Adonirubin” value [2, 11]?
Answer: The value was 285 mg/L.

Question: And the “Carotenoid: Adonixanthin” value [2, 11]?
Answer: Its value is 18 mg/L.

Question: What about the “Carotenoid: Astaxanthin” value [2, 11] of the same compound?
Answer: The value was 580 mg/L.

Question: And the “Carotenoid: Asteroidenone” value [2, 11]?
Answer: The value was 3 mg/L.

Question: What about the “Carotenoid: Canthaxanthin” value [2, 11] of the same compound?
Answer: The value was 338 mg/L.

Question: What about the “Carotenoid: Echinenone” value [2, 11] of the same compound?
Answer: Its value is 61 mg/L.

Question: What about the “Carotenoid: β-Carotene” value [2, 11] of the same compound?
Answer: The value was 29 mg/L.

Question: What about the OD610 [2, 11] of the same compound?
Answer: The OD610 was 191.

Question: What about the Total carotenoid [2, 11] of the same compound?
Answer: The Total carotenoid was 1319 mg/L.

Question: And the “Total carotenoid/dry microbial cells” value [2, 11]?
Answer: Its value is 43.2 mg/g.

Question: And the “Carotenoid: 3-Hydroxyechinenone” value [2, 12]?
Answer: Its value is 4 mg/L.

Question: And the “Carotenoid: Adonirubin” value [2, 12]?
Answer: The value was 347 mg/L.

Question: And the “Carotenoid: Adonixanthin” value [2, 12]?
Answer: The value was 7 mg/L.

Question: What about the “Carotenoid: Astaxanthin” value [2, 12] of the same compound?
Answer: Its value is 103 mg/L.

Question: What about the “Carotenoid: Asteroidenone” value [2, 12] of the same compound?
Answer: The value was 1 mg/L.

Question: And the “Carotenoid: Canthaxanthin” value [2, 12]?
Answer: The value was 431 mg/L.

Question: What about the “Carotenoid: Echinenone” value [2, 12] of the same compound?
Answer: The value was 103 mg/L.

Question: What about the “Carotenoid: β-Carotene” value [2, 12] of the same compound?
Answer: The value was 27 mg/L.

Question: And the OD610 [2, 12]?
Answer: Its OD610 is 143.

Question: What about the Total carotenoid [2, 12] of the same compound?
Answer: Its Total carotenoid is 1023 mg/L.

Question: And the “Total carotenoid/dry microbial cells” value [2, 12]?
Answer: Its value is 44.9 mg/g.

Question: What about the “total carotenoid production level, in words” value ([2]; final concentration of 0.042 to 21 μmol/L) of the same compound?
Answer: The value was “high”.
